Laboratory results reported in US20240423983A1, “ENHANCEMENT OF CD47 BLOCKADE THERAPY WITH DHFR INHIBITORS” (PF Argentum IP Holdings LLC, priority 2021, published 2024).
Where two headings read alike, the source gives them in different places.

How the values were obtained:
NCI-H460 NSCLC xenograft = settings: cited from earlier work
[1] = tested on: human non-small cell lung cancer (NSCLC) xenograft; settings: 2 mg/kg pralatrexate-treated group; cited from earlier work
[2] = tested on: human T cell lymphoma cell line H9; assay: macrophage phagocytosis assay on human lymphoma cell line H9; assay type: cell-based; settings: H9 cells (CD47-insensitive), 2 h co-culture with macrophages; FIG. 2; vs single agents or no-treatment control
Procedure: (§1) A macrophage phagocytosis assay was conducted in order to assess the effects of the combination of a DHFRi and CD47 blocking agent as compared to the agents individually on macrophage phagocytosis of human lymphoma cells.
(§2) For the assay, the DHFRi was pralatrexate, and the CD47 blocking agent was an Fc fusion protein comprising soluble SIRPα (TTI-621). The lymphoma cells were human T cell lymphoma cell lines HH (ATCC Ref. CRL-2105) (a mature T cell line from peripheral blood of a patient with aggressive cutaneous T cell leukemia/lymphoma) or H9 (ATCC Ref. HTB-176) (a cutaneous T cell lymphoma). Thus, there were 4 experimental conditions for each lymphoma cell type: A) no treatment; B) pralatrexate only; C) TTI-621 (SIRPα-IgG1 Fc) only; and D) combination of pralatrexate and TTI-621.
(§3) PBMC from normal donors were purchased from BioIVT and informed consent was obtained from all donors. CD14+ monocytes were isolated from PBMCs by positive selection using human monocyte isolation kit. […] Phagocytosis was assessed as % VPD450+ cells of live, single CD14+CD11b+ macrophages by flow cytometry.

[3] = tested on: human T cell lymphoma cell line HH; assay: macrophage phagocytosis assay on human lymphoma cell line HH; assay type: cell-based; settings: HH cells (CD47-sensitive), 2 h co-culture with macrophages; FIG. 1; vs single agents or no-treatment control
Procedure: as §1, §2, §3

C#CCC(Cc1cnc2nc(N)nc(N)c2n1)c1ccc(C(=O)N[C@@H](CCC(=O)O)C(=O)O)cc1 (some centres unmarked) [pralatrexate, Pralatrexate]
tumor growth inhibition (TGI) (NCI-H460 NSCLC xenograft; 1 mg/kg): 34% | tumor growth inhibition (TGI) (NCI-H460 NSCLC xenograft; 2 mg/kg): 52% | tumor growth inhibition (TGI) [1]: 38%

TTI-621: Fc fusion protein comprising soluble SIRPα (SIRPα-IgG1 Fc), SEQ ID NO: 9; CD47 blocking agent
percentage phagocytosis (% VPD450+ cells of live, single CD14+CD11b+ macrophages) [2]: not present | percentage phagocytosis (% VPD450+ cells of live, single CD14+CD11b+ macrophages) [3]: increased phagocytosis
